Measured values: ChEMBL document CHEMBL1130182, “C-terminal modifications of histidyl-N-benzylglycinamides to give improved inhibition of Ras farnesyltransferase, cellular activity, and anticancer activity in mice” (J Med Chem, 1997)
Square brackets hold non-standard residues; d marks the D form. Peptide text beside a SMILES is read from it. * marks the point of attachment. Cbz = O=C(OCc1ccccc1)*; Bn = c1ccc(C*)cc1

Legend:
Mus musculus = species on record: Mus musculus; experiment: Minimum effective dose required to detect unfarnesylated Ras in H-Ras-transformed NIH3T3 (H-Ras-F) cells injected into mice.; format: functional
[1] = target: Protein farnesyltransferase (Rattus norvegicus, UniProt Q02293+Q04631); experiment: In vitro inhibition of rat farnesyltransferase.; format: protein-complex assay

IC50 [1]	SMILES	MED (Mus musculus)
2 nM	N#CC(CNC(=O)CN(Cc1ccc(OCc2ccccc2)cc1)C(=O)[C@H](Cc1c[nH]cn1)NC(=O)OCc1ccccc1)c1ccccc1 (some centres not stated)	0.05 µM
270 nM	CC(C)(Cc1ccccc1)NC(=O)CN(Cc1ccc(OCc2ccccc2)cc1)C(=O)[C@H](Cc1c[nH]cn1)NC(=O)OCc1ccccc1	1 µM
17 nM	O=C(CN(Cc1ccc(OCc2ccccc2)cc1)C(=O)[C@H](Cc1c[nH]cn1)NC(=O)OCc1ccccc1)NCC1(c2ccccc2)CCCC1	0.2 µM
5 nM	C[C@H](CNC(=O)CN(Cc1ccc(OCc2ccccc2)cc1)C(=O)[C@H](Cc1c[nH]cn1)NC(=O)OCc1ccccc1)c1ccccc1	0.05 µM
25 nM	CCCC(CNC(=O)CN(Cc1ccc(OCc2ccccc2)cc1)C(=O)[C@H](Cc1c[nH]cn1)NC(=O)OCc1ccccc1)c1ccccc1 (some centres not stated)	0.2 µM
16 nM	C[C@@H](CNC(=O)CN(Cc1ccc(OCc2ccccc2)cc1)C(=O)[C@H](Cc1c[nH]cn1)NC(=O)OCc1ccccc1)c1ccccc1	0.2 µM
5 nM	CCC(CNC(=O)CN(Cc1ccc(OCc2ccccc2)cc1)C(=O)[C@H](Cc1c[nH]cn1)NC(=O)OCc1ccccc1)c1ccccc1 (some centres not stated)	0.05 µM
320 nM	O=C(CN(Cc1ccc(OCc2ccccc2)cc1)C(=O)[C@H](Cc1c[nH]cn1)NC(=O)OCc1ccccc1)NCCOCc1ccccc1	1 µM
3 nM	C[C@H](Cc1ccccc1)NC(=O)CN(Cc1ccc(OCc2ccccc2)cc1)C(=O)[C@H](Cc1c[nH]cn1)NC(=O)OCc1ccccc1	0.05 µM
41 nM	C[C@@H](Cc1ccccc1)NC(=O)CN(Cc1ccc(OCc2ccccc2)cc1)C(=O)[C@H](Cc1c[nH]cn1)NC(=O)OCc1ccccc1	0.2 µM
–	C[C@@H](NC(=O)[C@H](Cc1c[nH]c2ccccc12)NC(=O)[C@H](COCc1ccccc1)NC(=O)[C@H](Cc1ccc(OCc2ccccc2)cc1)NC(=O)[C@H](Cc1c[nH]cn1)NC(=O)OCc1ccccc1)C(N)=O (Cbz-HY(Bn)S(Bn)W[dA]-NH2)	>100 µM
8 nM	CC(CNC(=O)CN(Cc1ccc(OCc2ccccc2)cc1)C(=O)[C@H](Cc1c[nH]cn1)NC(=O)OCc1ccccc1)c1ccccc1 (some centres not stated)	0.05 µM
6 nM	O=C(CN(Cc1ccc(OCc2ccccc2)cc1)C(=O)[C@H](Cc1c[nH]cn1)NC(=O)OCc1ccccc1)NCC1(c2ccccc2)CCC1	0.02 µM
7 nM	O=C(CN(Cc1ccc(OCc2ccccc2)cc1)C(=O)[C@H](Cc1c[nH]cn1)NC(=O)OCc1ccccc1)NCC1(c2ccccc2)CC1	0.02 µM
4 nM	CC(C)(CNC(=O)CN(Cc1ccc(OCc2ccccc2)cc1)C(=O)[C@H](Cc1c[nH]cn1)NC(=O)OCc1ccccc1)c1ccccc1	0.05 µM
–	CCC(CC)(CNC(=O)CN(Cc1ccc(OCc2ccccc2)cc1)C(=O)[C@H](Cc1c[nH]cn1)NC(=O)OCc1ccccc1)c1ccccc1	0.2 µM

SMILES	IC50 [1]	MED (Mus musculus)
O=C(CN(Cc1ccc(OCc2ccccc2)cc1)C(=O)[C@H](Cc1c[nH]cn1)NC(=O)OCc1ccccc1)NCCc1ccccc1	62 nM	0.1 µM
